Experimental data: the supplement of paper PMC13386468

Assays:
Test in all cases: IC50 for competition of protein binding to Kinobeads
Conditions in all cases: assay detail: Kinobeads competition in P. falciparum blood-stage lysate
UniProt Q8IBH7 = molecular target: UniProt Q8IBH7
UniProt Q8IJV7 = molecular target: UniProt Q8IJV7
UniProt Q8II36 = molecular target: UniProt Q8II36
UniProt Q8I2X0 = molecular target: UniProt Q8I2X0
UniProt Q8IKU0 = molecular target: UniProt Q8IKU0
UniProt Q8I2R0 = molecular target: UniProt Q8I2R0
UniProt Q8I2U5 = molecular target: UniProt Q8I2U5
UniProt Q8I3T9 = molecular target: UniProt Q8I3T9
UniProt Q8IEQ1 = molecular target: UniProt Q8IEQ1
UniProt Q8II62 = molecular target: UniProt Q8II62
UniProt Q8IDV0 = molecular target: UniProt Q8IDV0
UniProt Q8I259 = molecular target: UniProt Q8I259
UniProt C6KTA7 = molecular target: UniProt C6KTA7
UniProt C0H5J5 = molecular target: UniProt C0H5J5
UniProt Q8IDD9 = molecular target: UniProt Q8IDD9
UniProt Q8I546 = molecular target: UniProt Q8I546
UniProt Q8IAX5 = molecular target: UniProt Q8IAX5
UniProt Q8I320 = molecular target: UniProt Q8I320
UniProt Q8I266 = molecular target: UniProt Q8I266
UniProt Q8I266, sequence (Q8I266 whole entry): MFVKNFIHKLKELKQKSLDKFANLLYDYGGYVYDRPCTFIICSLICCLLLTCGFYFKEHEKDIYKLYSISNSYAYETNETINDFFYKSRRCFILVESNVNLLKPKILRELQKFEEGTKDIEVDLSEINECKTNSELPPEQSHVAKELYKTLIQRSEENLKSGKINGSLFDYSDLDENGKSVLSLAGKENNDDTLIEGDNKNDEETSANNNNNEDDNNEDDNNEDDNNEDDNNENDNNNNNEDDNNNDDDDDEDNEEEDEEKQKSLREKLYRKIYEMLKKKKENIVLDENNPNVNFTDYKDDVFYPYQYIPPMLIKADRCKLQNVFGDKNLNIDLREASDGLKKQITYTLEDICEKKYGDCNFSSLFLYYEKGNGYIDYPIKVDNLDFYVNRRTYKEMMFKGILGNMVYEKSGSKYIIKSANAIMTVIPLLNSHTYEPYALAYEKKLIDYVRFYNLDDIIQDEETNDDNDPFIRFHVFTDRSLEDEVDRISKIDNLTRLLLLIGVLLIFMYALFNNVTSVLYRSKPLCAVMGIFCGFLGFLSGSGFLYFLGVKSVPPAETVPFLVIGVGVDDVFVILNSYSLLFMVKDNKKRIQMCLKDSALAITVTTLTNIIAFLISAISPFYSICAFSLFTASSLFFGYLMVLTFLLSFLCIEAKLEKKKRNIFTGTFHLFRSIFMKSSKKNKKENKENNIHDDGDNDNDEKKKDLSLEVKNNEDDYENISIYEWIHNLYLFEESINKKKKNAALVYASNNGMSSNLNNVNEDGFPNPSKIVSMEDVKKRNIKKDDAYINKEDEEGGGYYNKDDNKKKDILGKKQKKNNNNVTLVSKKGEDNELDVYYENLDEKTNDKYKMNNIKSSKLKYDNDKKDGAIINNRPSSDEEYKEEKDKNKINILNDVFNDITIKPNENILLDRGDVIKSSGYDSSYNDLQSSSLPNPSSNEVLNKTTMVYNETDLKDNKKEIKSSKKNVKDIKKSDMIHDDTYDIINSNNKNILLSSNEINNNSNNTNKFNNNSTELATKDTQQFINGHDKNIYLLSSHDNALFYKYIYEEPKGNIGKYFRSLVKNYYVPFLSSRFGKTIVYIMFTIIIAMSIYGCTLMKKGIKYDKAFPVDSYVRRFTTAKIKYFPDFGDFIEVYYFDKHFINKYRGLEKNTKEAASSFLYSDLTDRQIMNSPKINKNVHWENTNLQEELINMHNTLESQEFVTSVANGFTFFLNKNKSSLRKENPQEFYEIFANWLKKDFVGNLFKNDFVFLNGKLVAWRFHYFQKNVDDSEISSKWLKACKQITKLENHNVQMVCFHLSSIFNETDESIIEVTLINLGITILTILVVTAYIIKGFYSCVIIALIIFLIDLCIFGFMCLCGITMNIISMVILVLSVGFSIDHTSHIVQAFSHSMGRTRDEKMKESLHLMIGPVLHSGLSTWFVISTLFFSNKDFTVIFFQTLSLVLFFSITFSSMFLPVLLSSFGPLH

UniProt C0H5J2 = molecular target: UniProt C0H5J2
UniProt O97256 = molecular target: UniProt O97256
UniProt Q8ILY9 = molecular target: UniProt Q8ILY9
UniProt Q8IJN9 = molecular target: UniProt Q8IJN9
UniProt Q6LFH8 = molecular target: UniProt Q6LFH8
UniProt Q6LFH8, sequence (Q6LFH8 whole entry): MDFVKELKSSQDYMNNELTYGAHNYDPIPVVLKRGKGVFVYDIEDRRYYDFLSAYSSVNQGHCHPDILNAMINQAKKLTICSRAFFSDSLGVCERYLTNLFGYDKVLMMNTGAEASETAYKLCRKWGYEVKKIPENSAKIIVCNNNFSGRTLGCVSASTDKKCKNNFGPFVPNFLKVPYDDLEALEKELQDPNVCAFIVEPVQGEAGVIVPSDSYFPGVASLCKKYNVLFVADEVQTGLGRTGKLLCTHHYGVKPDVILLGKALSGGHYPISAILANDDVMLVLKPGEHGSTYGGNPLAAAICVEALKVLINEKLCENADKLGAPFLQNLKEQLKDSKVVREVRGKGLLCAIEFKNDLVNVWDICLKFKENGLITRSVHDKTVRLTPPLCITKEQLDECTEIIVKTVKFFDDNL

UniProt O96203 = molecular target: UniProt O96203
UniProt Q8IIJ6 = molecular target: UniProt Q8IIJ6
UniProt Q8IIJ6, sequence (Q8IIJ6 whole entry): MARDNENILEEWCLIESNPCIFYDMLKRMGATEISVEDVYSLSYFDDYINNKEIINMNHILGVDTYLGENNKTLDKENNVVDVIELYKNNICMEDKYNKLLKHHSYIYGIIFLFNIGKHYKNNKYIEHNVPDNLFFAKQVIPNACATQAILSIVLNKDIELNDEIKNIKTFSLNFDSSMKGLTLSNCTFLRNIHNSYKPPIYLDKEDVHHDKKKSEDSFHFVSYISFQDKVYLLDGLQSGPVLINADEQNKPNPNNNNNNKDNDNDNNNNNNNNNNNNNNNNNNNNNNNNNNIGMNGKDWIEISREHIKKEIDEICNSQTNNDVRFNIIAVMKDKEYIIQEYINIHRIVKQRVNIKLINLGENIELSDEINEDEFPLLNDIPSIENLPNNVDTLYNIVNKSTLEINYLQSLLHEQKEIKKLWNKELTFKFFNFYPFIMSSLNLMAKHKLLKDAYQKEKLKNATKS

UniProt P61074 = molecular target: UniProt P61074
UniProt P61074, sequence (P61074 whole entry): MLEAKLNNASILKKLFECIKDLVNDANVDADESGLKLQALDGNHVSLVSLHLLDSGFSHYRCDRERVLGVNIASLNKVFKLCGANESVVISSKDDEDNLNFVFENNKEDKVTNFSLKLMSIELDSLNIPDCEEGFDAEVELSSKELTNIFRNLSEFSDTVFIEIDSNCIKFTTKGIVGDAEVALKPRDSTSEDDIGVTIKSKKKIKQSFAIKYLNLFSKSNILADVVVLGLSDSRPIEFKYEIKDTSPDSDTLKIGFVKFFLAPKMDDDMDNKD

UniProt Q8ID50 = molecular target: UniProt Q8ID50
UniProt Q8I3M5 = molecular target: UniProt Q8I3M5
UniProt O96259 = molecular target: UniProt O96259
UniProt Q8IJ72 = molecular target: UniProt Q8IJ72
UniProt C6KTB1 = molecular target: UniProt C6KTB1
UniProt C0H4U0 = molecular target: UniProt C0H4U0
UniProt Q8I5T4 = molecular target: UniProt Q8I5T4
UniProt O96153 = molecular target: UniProt O96153
UniProt Q8IJI0 = molecular target: UniProt Q8IJI0
UniProt Q8I2A1 = molecular target: UniProt Q8I2A1
UniProt Q8IKZ6 = molecular target: UniProt Q8IKZ6
UniProt Q9U0I0 = molecular target: UniProt Q9U0I0
UniProt Q8IJT9 = molecular target: UniProt Q8IJT9
UniProt Q8IIC0 = molecular target: UniProt Q8IIC0
UniProt Q8IKF6 = molecular target: UniProt Q8IKF6
UniProt O77388 = molecular target: UniProt O77388
UniProt O77390 = molecular target: UniProt O77390
UniProt Q8ID42 = molecular target: UniProt Q8ID42
UniProt Q8IBT2 = molecular target: UniProt Q8IBT2
UniProt Q8II13 = molecular target: UniProt Q8II13
UniProt Q8ILN8 = molecular target: UniProt Q8ILN8
UniProt Q8I323 = molecular target: UniProt Q8I323
UniProt Q8IHP1 = molecular target: UniProt Q8IHP1
UniProt Q8I4Z4 = molecular target: UniProt Q8I4Z4

Measured: IC50
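Further: native unpurified kinases from lysate captured on beads bearing immobilized kinase inhibitors, with bead-bound kinases quantified by mass spectrometry across compound doses.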

UniProt Q8II36, sequence (Q8II36 whole entry): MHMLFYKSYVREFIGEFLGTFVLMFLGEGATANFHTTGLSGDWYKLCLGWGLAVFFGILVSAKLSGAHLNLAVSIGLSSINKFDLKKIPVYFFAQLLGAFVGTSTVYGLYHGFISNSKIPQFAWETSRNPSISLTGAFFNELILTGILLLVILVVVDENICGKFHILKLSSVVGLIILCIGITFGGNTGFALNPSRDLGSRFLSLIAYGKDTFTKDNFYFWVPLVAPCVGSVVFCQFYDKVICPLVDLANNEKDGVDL
UniProt Q8IBH7, sequence (Q8IBH7 whole entry): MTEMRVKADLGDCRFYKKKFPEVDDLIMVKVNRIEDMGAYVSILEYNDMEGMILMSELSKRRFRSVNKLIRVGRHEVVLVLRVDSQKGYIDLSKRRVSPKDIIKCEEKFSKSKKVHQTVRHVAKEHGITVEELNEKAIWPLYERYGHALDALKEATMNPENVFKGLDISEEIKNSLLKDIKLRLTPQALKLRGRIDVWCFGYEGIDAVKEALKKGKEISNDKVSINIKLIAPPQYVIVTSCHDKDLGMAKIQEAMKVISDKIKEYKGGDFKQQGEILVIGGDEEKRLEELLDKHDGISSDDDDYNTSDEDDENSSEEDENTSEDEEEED
UniProt Q8IKU0, sequence (Q8IKU0 whole entry): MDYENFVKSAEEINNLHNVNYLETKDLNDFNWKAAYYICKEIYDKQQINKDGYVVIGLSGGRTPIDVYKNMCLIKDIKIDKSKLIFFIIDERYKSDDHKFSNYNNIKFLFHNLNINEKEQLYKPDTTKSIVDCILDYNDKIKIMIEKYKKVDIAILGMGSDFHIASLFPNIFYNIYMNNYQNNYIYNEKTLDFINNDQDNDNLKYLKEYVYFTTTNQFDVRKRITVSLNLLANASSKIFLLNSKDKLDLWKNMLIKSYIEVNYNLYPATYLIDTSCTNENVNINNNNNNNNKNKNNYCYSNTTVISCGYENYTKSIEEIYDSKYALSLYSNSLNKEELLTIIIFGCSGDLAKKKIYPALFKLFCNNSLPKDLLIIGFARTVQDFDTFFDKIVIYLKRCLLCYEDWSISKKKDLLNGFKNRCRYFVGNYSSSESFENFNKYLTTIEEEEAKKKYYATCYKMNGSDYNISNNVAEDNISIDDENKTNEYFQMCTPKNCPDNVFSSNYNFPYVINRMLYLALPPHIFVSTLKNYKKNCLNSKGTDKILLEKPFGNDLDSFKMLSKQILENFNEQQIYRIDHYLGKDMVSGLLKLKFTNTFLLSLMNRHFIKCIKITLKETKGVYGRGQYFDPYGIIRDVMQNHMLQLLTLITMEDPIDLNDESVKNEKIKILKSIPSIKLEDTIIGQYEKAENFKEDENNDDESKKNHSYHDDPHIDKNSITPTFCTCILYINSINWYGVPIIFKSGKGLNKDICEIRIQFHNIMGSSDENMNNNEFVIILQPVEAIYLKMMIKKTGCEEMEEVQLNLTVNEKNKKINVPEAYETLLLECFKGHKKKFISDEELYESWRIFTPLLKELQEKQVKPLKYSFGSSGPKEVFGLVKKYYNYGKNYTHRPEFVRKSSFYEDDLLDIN

O=c1[nH]c2ccc(Cl)cc2c(NC2CN3CCC2CC3)c1-c1nc2ccccc2[nH]1 (stereo unspecified) [CHIR-124]
> 20 µM: UniProt Q8IBH7 | UniProt Q8IJV7 | UniProt Q8II36 | UniProt Q8I2X0 | UniProt Q8IKU0 | UniProt Q8I2R0 | UniProt Q8I2U5 | UniProt Q8I3T9 | UniProt Q8IEQ1 | UniProt Q8II62 | UniProt Q8IDV0 | UniProt Q8I259 | UniProt C6KTA7 | UniProt C0H5J5 | UniProt Q8IDD9 | UniProt Q8I546 | UniProt Q8IAX5 | UniProt Q8I320 | UniProt Q8I266 | UniProt C0H5J2 | UniProt O97256 | UniProt Q8ILY9 | UniProt Q8IJN9 | UniProt Q6LFH8 | UniProt O96203 | UniProt Q8IIJ6 | UniProt P61074 | UniProt Q8ID50 | UniProt Q8I3M5 | UniProt O96259 | UniProt Q8IJ72 | UniProt C6KTB1 | UniProt C0H4U0 | UniProt Q8I5T4 | UniProt O96153 | UniProt Q8IJI0 | UniProt Q8I2A1 | UniProt Q8IKZ6 | UniProt Q9U0I0 | UniProt Q8IJT9 | UniProt Q8IIC0 | UniProt Q8IKF6 | UniProt O77388 | UniProt O77390 | UniProt Q8ID42 | UniProt Q8IBT2 | UniProt Q8II13 | UniProt Q8ILN8 | UniProt Q8I323 | UniProt Q8IHP1 | UniProt Q8I4Z4
